Patent US12263144B2, “Methods of treating IgA nephropathy with thiol-containing molecules” (Accubit LLC—Biotechnology, priority 2020, dated 2025)

Tests used:
[1] = molecular target: T1, Human rIgA1 (poly-rIgA) (Homo sapiens, UniProt P01876); assay: SEC of human rIgA (HEK293-produced) after treatment; format: biochemical; conditions: human rIgA from HEK293 cells, FIG. 5 B
T1 construct: IL-2 signal peptide (N, cleaved yes); 6xHis (N); made in house; host or cells: HEK293
Experimental: (§1) The overall complex size of IgA aggregates was determined either by size-exclusion chromatography (SEC: Superdex 200 Increase 10/300 by GL Cytiva), or by SDS-PAGE. For evaluating the involvement of intermolecular disulfide connectivity in IgA complexes, IgA samples were treated with either reducing agents, such as DTT, TCEP or reduced glutathione (Sigma), or interventional drugs, such as cysteamine (Sigma), WR-1065 (Sigma) and N-Acetyl-L-cysteine (VWR Chemicals) in phosphate-buffered saline (PBS) pH7.4. Before running on SEC, samples were treated with the drugs at indicated concentrations at 37° C. for one hour.
In the meantime, the SEC column was also equilibrated with PBS supplemented with the reducing agent at the same concentration. For running SEC, 100 μL of the recombinant IgA (concentration varies between 1 mg/mL and 8 mg/mL) or purified native human IgA1 (˜1 mg/mL) was loaded to the column and UV absorption was recorded following elution. Recombinant IgA typically formed two elution peaks: a minor peak of ˜800 kDa poly-rIgA followed by a major peak of ˜170 kDa of monomeric rIgA. The ratios between poly-rIgA and mono-rIgA were calculated as between the corresponding areas under the curve (AUC), and the treatment effect of the thiol agents was judged by the reduction of the poly-rIgA level with a compensatory increase of the mono-rIgA content. […]

[2] = test system: glomerular rIgA deposition; assay: Passive rat model of IgA deposition (rat rIgA injection), glomerular immunofluorescence; format: in vivo, Wistar rats; conditions: rats, 250 mg/kg s.c. daily 2 h before rIgA i.v., 5 days, n=3; control 1384±290
Experimental: To establish the passive rat model, 5 mg/kg.BW recombinant rat rIgA, which contained a fraction of poly-rIgA, were i.v. injected daily to six 14-weeks old male Wistar rats (Charles River Labs, USA) for 5 consecutive days. Every day, three rats in each group had received a subcutaneous dose of either 250 mg/kg cysteamine, or buffer control, two hours before the rIgA injection. Twenty-four hours after the last injection of rIgA, kidneys were collected for immunofluorescence detection of deposits with goat-anti-rat IgA antibody (Cat: STAR111, Biorad laboratory). Similarly, a passive IgA nephrophathy mouse model was established by injecting 35 mg/kg purified human IgA1 in BALB/c mice (Charles River Labs). Two hours before IgA1 injection, six mice in each experimental group had each received a pretreatment dose of either 200 mg/kg cysteamine, or PBS, via subcutaneous injection. Two and a half hours after human IgA1 injection, kidneys were harvested, and specimens were stained with FITC-conjugated anti-human IgA antibody (Cat: 2050-02, SouthernBiotech). Plasma samples were collected at 0.5 h, 1 h and 2 h after IgA1 injection of all mice.
Frozen tissues were sectioned at 4 μm for IgA detection using goat anti-rat IgA (Cat: STAR111, Bio-Rad Laboratories) at 1:100, or anti-human IgA antibody (Cat: 2050-02, […]) at 1:80 dilution. […]

[3] = test system: natural IgA1 assembly (two heavy chains and two light chains connected via disulfide bonds); assay: Ex vivo study: integrity of natural IgA assembly under thiol/reducing agents; format: biochemical
Experimental: as §1
Proteins in sample buffer (Bio-Rad Laboratories, Hercules, CA, USA) with or without TCEP (for reducing or nonreducing condition, respectively) were resolved by 4-12% SDS-PAGE (Bio-Rad Laboratories). IgA bands were subsequently visualized either by staining with GelCode Blue (Thermo Fisher Scientific), or by Western blotting on PVDF membrane. For Western blotting, 5% non-fat milk was used in blocking for one hour at room temperature. The membrane was then incubated with mouse anti-Histag antibody (Thermo Scientific), or HRP-conjugated goat anti-rat IgA α-chain antibody (Cat. ab97185, Abcam, UK), or goat anti-human IgA HRP antibody (Cat: 2050-05, SouthernBiotech) for detecting rat or human IgA (Fc), respectively. The membrane was developed using the Clarity™ ECL substrate (Bio-Rad Laboratories, CA, USA).

T1 sequence (P01876 121-353 isoform P01876-1): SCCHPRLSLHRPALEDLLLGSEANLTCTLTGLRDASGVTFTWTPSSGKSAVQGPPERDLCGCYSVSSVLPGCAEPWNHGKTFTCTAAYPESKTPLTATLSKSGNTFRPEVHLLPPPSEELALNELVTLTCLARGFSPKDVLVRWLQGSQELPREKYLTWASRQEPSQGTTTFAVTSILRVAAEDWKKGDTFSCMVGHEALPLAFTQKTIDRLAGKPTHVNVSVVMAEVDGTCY

poly-rIgA level (SEC) [1]: reduction of poly-rIgA levels
Structure (SMILES): NCCS [cysteamine]
quantitation of rIgA deposit in glomeruli (Mean±SEM immunofluorescence intensity) [2]: 523±76
disruption of natural IgA assembly / normal pairing of IgA heavy chains [3]: did not cause unwanted disruption of natural IgA1 assembly
